From EPA's ToxValDB 9.5 (doi:10.2903/j.efsa.2010.1856)
Values after ≈ are worked out from the molar mass of the structure shown.

Assays:
Coturnix japonica = details: acute, oral, mortality
Apis mellifera = details: acute; duration: 48 hours; oral; unspecified; mortality
Canidae = details: chronic, duration: 1 years, oral, Dog Other
Anatidae = details: short-term; oral; feed; mortality
Colinus virginianus = details: reproduction developmental
Phasianus sp. = details: acute; oral; unspecified; mortality
Daphnia magna = details: chronic/long-term; duration: 21 days; reproduction
Rattus norvegicus = details: chronic; duration: 2 years; histopathology: nonneoplastic
Oncorhynchus mykiss = details: mortality
Typhlodromus pyri = assay: LR50; higher = less toxic; details: not reported; mortality
Aphidius rhopalosiphi = assay: LR50; higher = less toxic; details: not reported; mortality

Question: With `CC1OC(C)OC(C)OC(C)O1` (stereo not drawn) [2,4,6,8-Tetramethyl-1,3,5,7-tetroxocane] as the compound, how does the LC50 (Coturnix japonica; diet) read?
Answer: 3460 mg/kg

Question: What about the LD50 (Coturnix japonica) of the same compound?
Answer: 170 mg/kg-day

Question: What about the LD50 (Anas platyrhynchos; acute, oral, unspecified, mortality) of the same compound?
Answer: 196 mg/kg-day

Question: What about the NOEC (Anas platyrhynchos; reproductive) of the same compound?
Answer: 175 mg/kg

Question: And the LD50 (Apis mellifera)?
Answer: > 87.5 µg/piece

Question: What about the NOAEL (Canidae; mortality) of the same compound?
Answer: 10 mg/kg-day

Question: What about the NOAEL (Canidae; neurology) of the same compound?
Answer: 30 mg/kg-day

Question: And the LC50 (Anatidae)?
Answer: 3450 mg/kg

Question: What about the NOEC (Colinus virginianus) of the same compound?
Answer: 500 mg/kg-day

Question: And the LD50 (Phasianus sp.)?
Answer: 262 mg/kg-day

Question: What about the NOEC (Daphnia magna) of the same compound?
Answer: 90 mg/L

Question: And the NOAEL (Rattus norvegicus)?
Answer: 2 mg/kg-day

Question: And the LC50 (Oncorhynchus mykiss; acute, duration: 96 hours)?
Answer: 75 µg/mL (≈ 426 µM)

Question: What about the NOEC (Oncorhynchus mykiss; chronic/long-term, duration: 21 days) of the same compound?
Answer: 37.5 mg/L

Question: And the LC50 (Tagia sp.; acute, duration: 14 days, mortality)?
Answer: > 1000 mg/kg

Question: And the NOEC (Tagia sp.; chronic/long-term, reproduction)?
Answer: 32 mg/kg

Question: And the LR50 (Typhlodromus pyri)?
Answer: > 350 g/ha

Question: And the LR50 (Aphidius rhopalosiphi)?
Answer: > 350 g/ha
